pIC50: −log10 of the molar value. Starred links: 1 amine or outer side, 2 acyl side, 3 side chain; linkers in the order of their positions; H or OH if unused. Positions of bridges follow the written chain, without caps; N, C: chain ends. Non-standard residues stand in square brackets, D forms with d. Residues, ends and D or L forms follow the SMILES beside them. Adda = CO[C@@H](Cc1ccccc1)[C@@H](C)/C=C(C)/C=C/[C@H](N[*:1])[C@H](C)C(=O)[*:2]; dAsp(3S-Me) = C[C@H](C(=O)[*:3])[C@@H](N[*:1])C(=O)[*:2]; d(γGlu) = O=C(O)[C@@H](CCC(=O)[*:2])N[*:1]; NMeDha = C=C(NC)C(=O)O
Columns and labels:
[1] = molecular target: PP2A (Homo sapiens, UniProt P67775); conditions: cited from earlier work
[2] = molecular target: PP2A core (Homo sapiens, UniProt P67775); type: biochemical; conditions: stoichiometric amounts of inhibitor
PP2A core, sequence (P67775 whole entry): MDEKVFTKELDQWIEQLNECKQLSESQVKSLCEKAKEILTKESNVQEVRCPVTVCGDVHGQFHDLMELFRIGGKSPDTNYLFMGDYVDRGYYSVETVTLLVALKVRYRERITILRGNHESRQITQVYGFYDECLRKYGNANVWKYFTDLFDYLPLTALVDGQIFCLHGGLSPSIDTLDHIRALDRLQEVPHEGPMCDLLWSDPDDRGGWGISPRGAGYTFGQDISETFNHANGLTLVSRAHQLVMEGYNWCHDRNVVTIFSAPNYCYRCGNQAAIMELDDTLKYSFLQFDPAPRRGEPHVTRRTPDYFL
PP2A core, sequence (P30153 whole entry, further chain): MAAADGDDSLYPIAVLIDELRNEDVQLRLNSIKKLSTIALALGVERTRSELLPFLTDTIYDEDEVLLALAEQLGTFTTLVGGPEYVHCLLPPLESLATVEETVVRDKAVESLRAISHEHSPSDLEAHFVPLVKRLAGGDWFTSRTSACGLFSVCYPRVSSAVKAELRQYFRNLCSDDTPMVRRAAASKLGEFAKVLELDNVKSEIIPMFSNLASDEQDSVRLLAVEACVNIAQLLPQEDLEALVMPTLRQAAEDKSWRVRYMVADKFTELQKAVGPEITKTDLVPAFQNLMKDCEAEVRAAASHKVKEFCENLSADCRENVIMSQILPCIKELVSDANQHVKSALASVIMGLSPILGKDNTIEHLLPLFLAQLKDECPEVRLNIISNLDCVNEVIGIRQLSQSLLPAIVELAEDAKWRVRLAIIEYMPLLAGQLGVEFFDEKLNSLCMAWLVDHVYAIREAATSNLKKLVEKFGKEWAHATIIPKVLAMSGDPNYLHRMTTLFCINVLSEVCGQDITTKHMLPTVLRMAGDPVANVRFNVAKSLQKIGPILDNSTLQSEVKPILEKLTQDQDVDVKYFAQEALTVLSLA

PP2A, sequence (P67775 whole entry): as the sequence (P67775 whole entry) above

Structure (SMILES) | inhibition of the activity of PP2A [1] | inhibition of phosphatase activity of the assembled, purified PP2A core [2] | pIC50 ([1]; PP2A, read-out: inhibitory constant (IC50))
C=C1C(=O)N[C@H](C)C(=O)N[C@@H](CC(C)C)C(=O)N[C@@H](C(=O)O)[C@H](C)C(=O)N[C@@H](CCCNC(=N)N)C(=O)N[C@@H](/C=C/C(C)=C/[C@H](C)[C@H](Cc2ccccc2)OC)[C@H](C)C(=O)N[C@@H](C(=O)O)CCC(=O)N1C [MCLR, microcystin-LR] (R[Adda][d(γGlu)][NMeDha][dA]L[dAsp(3S-Me)]-OH; lactam N-7) | potently inhibit |  | 
C=C1[C@@H](O)[C@@H]2O[C@]3(CC[C@H](/C=C/[C@@H](C)[C@@H]4CC(C)=C[C@@]5(O[C@H](C[C@@](C)(O)C(=O)O)CC[C@H]5O)O4)O3)CC[C@H]2O[C@@H]1[C@@H](O)C[C@H](C)[C@H]1O[C@@]2(CCCCO2)CC[C@H]1C [OA, okadaic acid] |  | efficiently inhibited | ~10.00

— patent US20100092480A1, “MODULATORS OF PROTEIN PHOSPHATASE 2A” (priority 2006, published 2010)
